Measured values reported in patent publication US10696692B2, “Amido-benzyl sulfone and sulfoxide derivates” (Forma TM, LLC, priority 2012, dated 2020).
Read-outs that look alike come from different tables or passages of the source.

What was measured:
[1] = target: NAMPT (Homo sapiens (Human), UniProt P43490); assay: Assay 1: Biochemical Inhibition Assay (NAMPT enzymatic reaction, NMN quantified by mass spectrometry); conditions: read-out: Biochemical (IC50);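 note: recombinant His-tagged human NAMPT preincubated with compound 15 min, then reacted 30 min at rt with 1 µM NAM, 100 µM PRPP, 2.5 mM ATP, NMN product read by RapidFire MS, normalized to L-Cystathionine internal standard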
[2] = test system: A2780 cells; assay: Assay 2: In-Vitro Cell Proliferation Assay (A2780 cells, SRB readout, 72 hours); type: cell-based; conditions: A2780 cells, 72 hours, SRB, read-out: Cell Proliferation (IC50);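 note: viable cells counted via sulforhodamine B staining, absorbance at 570 nm, after 72 h exposure at 37 °C, DMSO 0.1% as control, media-only background subtracted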

NAMPT, sequence (P43490 whole entry): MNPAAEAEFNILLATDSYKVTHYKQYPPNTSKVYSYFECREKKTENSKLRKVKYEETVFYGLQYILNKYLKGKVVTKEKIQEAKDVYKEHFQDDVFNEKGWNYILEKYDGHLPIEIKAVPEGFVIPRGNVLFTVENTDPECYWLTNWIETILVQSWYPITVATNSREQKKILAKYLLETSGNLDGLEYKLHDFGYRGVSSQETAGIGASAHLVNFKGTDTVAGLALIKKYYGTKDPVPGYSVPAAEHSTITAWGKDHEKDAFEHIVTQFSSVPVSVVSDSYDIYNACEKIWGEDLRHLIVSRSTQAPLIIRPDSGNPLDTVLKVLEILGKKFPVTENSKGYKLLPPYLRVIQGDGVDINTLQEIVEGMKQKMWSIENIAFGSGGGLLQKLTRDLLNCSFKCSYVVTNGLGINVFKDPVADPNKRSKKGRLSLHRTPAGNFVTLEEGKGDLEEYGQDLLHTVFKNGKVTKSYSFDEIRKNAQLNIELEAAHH

| SMILES | IC50 [1] | IC50 ([2]; Homo sapiens, A2780, 72 h) | IC50 [2] |
| --- | --- | --- | --- |
| O=C(NCc1ccc(S(=O)(=O)N2CCCC3(CCCN3)CC2)cc1)c1ccc2nccn2c1 (stereo not shown) [Example 334, N-[[4-(1,9-diazaspiro[4.6]undecan-9-ylsulfonyl)phenyl]methyl] imidazo[1,2-a]pyridine-6-carboxamide] | 26.7 nM | 26 nM |  |
| O=C(NCc1ccc(S(=O)(=O)N2CCOC3CNCC32)cc1)c1ccc2nccn2c1 (stereo not shown) [Example 335, N-[[4-(3,4a,5,6,7,7a-hexahydro-2H-pyrrolo[3,4-b][1,4]oxazin-4-ylsulfonyl)phenyl)methyl] imidazo[1,2-a]pyridine-6-carboxamide] | 965 nM |  | 2000 nM |
| O=C(NCc1ccc(S(=O)(=O)N2CCCC3(CCCCN3)C2)cc1)c1ccc2nccn2c1 (stereo not shown) [Example 336, N-[[4-(1,8-diazaspiro[5.5]undecan-8-ylsulfonyl)phenyl]methyl] imidazo[1,2-a]pyridine-6-carboxamide] | 379 nM |  | 399 nM |
| CC(C)N1CCC(S(=O)(=O)c2ccc(CNC(=O)c3cc4cnccc4[nH]3)cc2)CC1 [Example 340, N-[[4-[(1-isopropyl-4-piperidyl)sulfonyl]phenyl]methyl]-1H-pyrrolo[3,2-c]pyridine-2-carboxamide] | 88.5 nM | 26.6 nM |  |
| CCCN1CCC(S(=O)(=O)c2ccc(CNC(=O)c3cc4ccncc4o3)cc2)CC1 [Example 342, N-[[4-[(1-propyl-4-piperidyl)sulfonyl]phenyl]methyl]furo[2,3-c]pyridine-2-carboxamide] | 20.3 nM | 23 nM |  |
| O=C(NCc1ccc(S(=O)(=O)C2CCN(C(=O)c3ccccc3)CC2)cc1)c1cnc2[nH]ncc2c1 [Example 344, N-[[4-[(1-benzoyl-4-piperidyl)sulfonyl]phenyl]methyl]-1H-pyrazolo[3,4-b]pyridine-5-carboxamide] | 302 nM | 451 nM |  |
| O=C(NCc1ccc(S(=O)(=O)C2CCCN(S(=O)(=O)c3ccccc3)C2)cc1)c1cnc2[nH]ncc2c1 (stereo not shown) [Example 345, N-[[4-[[1-(benzenesulfonyl)-3-piperidyl]sulfonyl]phenyl]methyl]-1H-pyrazolo[3,4-b]pyridine-5-carboxamide] | 118 nM | 307 nM |  |
| O=C(NCc1ccc(S(=O)(=O)C2CCN(S(=O)(=O)c3ccccc3)C2)cc1)c1cnc2[nH]ncc2c1 (stereo not shown) [Example 346, N-[[4-[1-(benzenesulfonyl)pyrrolidin-3-yl]sulfonylphenyl]methyl]-1H-pyrazolo[3,4-b]pyridine-5-carboxamide] | 102 nM | 198 nM |  |
| CC(=O)N1CCCC(S(=O)(=O)c2ccc(CNC(=O)c3cnc4[nH]ncc4c3)cc2)C1 (stereo not shown) [Example 347, N-[[4-[(1-acetyl-3-piperidyl)sulfonyl]phenyl]methyl]-1H-pyrazolo[3,4-b]pyridine-5-carboxamide] | 381 nM | 640 nM |  |
| CC(=O)N1CCC(S(=O)(=O)c2ccc(CNC(=O)c3cnc4[nH]ncc4c3)cc2)C1 (stereo not shown) [Example 348, N-[[4-(1-acetylpyrrolidin-3-yl)sulfonylphenyl]methyl]-1H-pyrazolo[3,4-b]pyridine-5-carboxamide] | 2000 nM | 2000 nM |  |
| CS(=O)(=O)N1CCC(S(=O)(=O)c2ccc(CNC(=O)c3cnc4[nH]ncc4c3)cc2)CC1 [Example 349, N-[[4-[(1-methylsulfonyl-4-piperidyl)sulfonyl]phenyl]methyl]-1H-pyrazolo[3,4-b]pyridine-5-carboxamide] | 73.5 nM | 52.2 nM |  |
| O=C(NCc1ccc(S(=O)(=O)C2CCCN(C(=O)c3ccccc3)C2)cc1)c1cnc2[nH]ncc2c1 (stereo not shown) [Example 350, N-[[4-[(1-benzoyl-3-piperidyl)sulfonyl]phenyl]methyl]-1H-pyrazolo[3,4-b]pyridine-5-carboxamide] | 300 nM | 258 nM |  |
| O=C(NCc1ccc(S(=O)(=O)C2CCN(C(=O)c3ccccc3)C2)cc1)c1cnc2[nH]ncc2c1 (stereo not shown) [Example 351, N-[[4-(1-benzoylpyrrolidin-3-yl)sulfonylphenyl]methyl]-1H-pyrazolo[3,4-b]pyridine-5-carboxamide] | 71.1 nM | 107 nM |  |
| O=C(NCc1ccc(S(=O)(=O)C2CCN(S(=O)(=O)c3ccccc3)CC2)cc1)c1cnc2[nH]ncc2c1 [Example 352, N-[[4-[[1-(benzenesulfonyl)-4-piperidyl]sulfonyl]phenyl]methyl]-1H-pyrazolo[3,4-b]pyridine-5-carboxamide] | 18 nM | 20.3 nM |  |
| CS(=O)(=O)N1CCCC(S(=O)(=O)c2ccc(CNC(=O)c3cnc4[nH]ncc4c3)cc2)C1 (stereo not shown) [Example 353, N-[[4-[(1-methylsulfonyl-3-piperidyl)sulfonyl)phenyl]methyl]-1H-pyrazolo[3,4-b]pyridine-5-carboxamide] | 3970 nM | 2000 nM |  |
| CS(=O)(=O)N1CCC(S(=O)(=O)c2ccc(CNC(=O)c3cnc4[nH]ncc4c3)cc2)C1 (stereo not shown) [Example 354, N-[[4-(1-methylsulfonylpyrrolidin-3-yl)sulfonylphenyl]methyl]-1H-pyrazolo[3,4-b]pyridine-5-carboxamide] | 413 nM | 726 nM |  |

| SMILES | IC50 [1] | IC50 ([2]; Homo sapiens, A2780, 72 h) | IC50 [2] |
| --- | --- | --- | --- |
| O=C(NCc1ccc([S+]([O-])C2CCN(CC(F)(F)F)CC2)cc1)c1cc2ccncc2o1 (stereo not shown) [Example 356, N-[[4-[[1-(2,2,2-trifluoroethyl)-4-piperidyl]sulfinyl]phenyl]methyl]furo[2,3-c]pyridine-2-carboxamide] | 13.5 nM | 3.25 nM |  |
| CCCN1CCC([S+]([O-])c2ccc(CNC(=O)c3cc4ccncc4o3)cc2)CC1 (stereo not shown) [Example 358, N-[[4-[(1-propyl-4-piperidyl)sulfinyl]phenyl]methyl]furo[2,3-c]pyridine-2-carboxamide] | 19.3 nM |  | 4.58 nM |
| CC(C)N1CCC([S+]([O-])c2ccc(CNC(=O)c3ccc4nccn4c3)cc2)CC1 (stereo not shown) [Example 362, N-[[4-[(1-isopropyl-4-piperidyl)sulfinyl]phenyl]methyl]imidazo[1,2-a]pyridine-6-carboxamide] | 35 nM | 22.1 nM |  |
| CC(C)N1CCC([S+]([O-])c2ccc(CNC(=O)N3Cc4ccncc4C3)cc2)CC1 (stereo not shown) [Example 363, N-[[4-[(1-isopropyl-4-piperidyl)sulfinyl]phenyl]methyl]-1,3-dihydropyrrolo[3,4-c]pyridine-2-carboxamide] | 53.7 nM | 45.6 nM |  |
| O=C(NCc1ccc([S+]([O-])C2CCN(CC(F)(F)F)CC2)cc1)c1ccc2nccn2c1 (stereo not shown) [Example 364, N-[[4-[[1-(2,2,2-tnfluoroethyl)-4-piperidyl]sulfinyl]phenyl]methyl]imidazo[1,2-a]pyridine-6-carboxamide] | 2.93 nM | 3.51 nM |  |
| O=C(NCc1ccc([S+]([O-])C2CCN(C3CCOCC3)CC2)cc1)N1Cc2ccncc2C1 (stereo not shown) [Example 365, N-[[4-[(1-tetrahydropyran-4-yl-4-piperidyl)sulfinyl]phenyl]methyl]-1,3-dihydropyrrolo[3,4-c]pyridine-2-carboxamide] | 2.02 nM | 20 nM |  |
| CC(C)N1CCC([S+]([O-])c2ccc(CNC(=O)c3cnc4[nH]ncc4c3)cc2)CC1 (stereo not shown) [Example 366, N-[[4-[(1-isopropyl-4-piperidyl)sulfinyl]phenyl]methyl]-1H-pyrazolo[3,4-b]pyridine-5-carboxamide] | 29 nM | 77.6 nM |  |
| O=C(NCc1ccc([S+]([O-])C2CCN(CC(F)(F)F)CC2)cc1)c1cnc2[nH]ncc2c1 (stereo not shown) [Example 367, N-[[4-[[1-(2,2,2-trifluoroethyl)-4-piperidyl)sulfinyl]phenyl]methyl]-1H-pyrazolo[3,4-b]pyridine-5-carboxamide] | 88.1 nM | 15 nM |  |
| CN1CCC([S+]([O-])c2ccc(CNC(=O)c3ccc4nccn4c3)cc2)CC1 (stereo not shown) [Example 371, N-[[4-[(1-methyl-4-piperidyl)sulfinyl]phenyl]methyl]imidazo[1,2-a]pyridine-6-carboxamide] | 38 nM | 12.4 nM |  |
| CN1CCC([S+]([O-])c2ccc(CNC(=O)N3Cc4ccncc4C3)cc2)CC1 (stereo not shown) [Example 372, N-[[4-[(1-methyl-4-piperidyl)sulfinyl]phenyl]methyl]-1,3-dihydropyrrolo[3,4-c]pyridine-2-carboxamide] | 57.6 nM | 61.2 nM |  |
| CCN1CCC([S+]([O-])c2ccc(CNC(=O)c3cnc4[nH]ncc4c3)cc2)CC1 (stereo not shown) [Example 373, N-[[4-[(1-ethyl-4-piperidyl)sulfinyl]phenyl]methyl]-1H-pyrazolo[3,4-b]pyridine-5-carboxamide] | 113 nM | 15.4 nM |  |
| CC(C)CN1CCC([S+]([O-])c2ccc(CNC(=O)N3Cc4ccncc4C3)cc2)CC1 (stereo not shown) [Example 374, N-[(4-[(1-isobutyl-4-piperidyl)sulfinyl]phenyl]methyl]-1,3-dihydropyrrolo[3,4-c]pyridine-2-carboxamide] | 15.2 nM | 2.83 nM |  |
| CCCN1CCC([S+]([O-])c2ccc(CNC(=O)c3ccc4nccn4c3)cc2)CC1 (stereo not shown) [Example 375, N-[[4-[(1-propyl-4-piperidyl)sulfinyl]phenyl]methyl)imidazo[1,2-a]pyridine-6-carboxamide] | 27.5 nM | 24.5 nM |  |
| O=C(NCc1ccc([S+]([O-])C2CCN(CC(F)(F)F)CC2)cc1)N1Cc2ccncc2C1 (stereo not shown) [Example 376, N-[[4-[[1-(2,2,2-tnfluoroethyl)-4-piperidyl]sulfinyl]phenyl]methyl]-1,3-dihydropyrrolo[3,4-c]pyridine-2-carboxamide] | 5.82 nM | 8.54 nM |  |
| CCCN1CCC([S+]([O-])c2ccc(CNC(=O)N3Cc4ccncc4C3)cc2)CC1 (stereo not shown) [Example 377, N-[[4-[(1-propyl-4-piperidyl)sulfinyl]phenyl]methyl]-1,3-dihydropyrrolo[3,4-c]pyridine-2-carboxamide] | 24.9 nM | 24.1 nM |  |
| CCCN1CCC([S+]([O-])c2ccc(CNC(=O)c3cnc4[nH]ncc4c3)cc2)CC1 (stereo not shown) [Example 378, N-[[4-[(1-propyl-4-piperidyl)sulfinyl]phenyl]methyl)-1H-pyrazolo[3,4-b]pyridine-5-carboxamide] | 594 nM | 143 nM |  |
